We go through two compounds from patent US12453750B2, “Fixed dose combination of cannabinoids and medical mushrooms for prevention and treatment of cancer, inflammatory or immune-mediated inflammatory diseases” (priority 2019, dated 2025).

SMILES strings stand for the structures.

Series [1] deals with IL-6 secretion from RAW cells. Briefly: IL-6 secretion, Multiplex analysis of medium of LPS-stimulated RAW cells. Particulars: CBD (15 μM). The series is classed as cell-based, Murine. The method, then: (§1) • a. Cells were harvested at 80% confluence, counted and re-suspend to final concentration of 1×10^6/ml in growth medium. • b. […] Cells were incubated (37±10 C, 5% CO2) for 18-24 hrs. • d. Growth medium was removed; […] medium and 4 μL Vehicle, Test Item, and Controls were added. • e. The content of all wells was mixed by pipetting up and down three times. • f. Plates were incubated for 2 h (37±1° C., 5% CO2). • g. LPS (10 μl, final concentration of 100 ng/ml LPS) was added to all wells. • h. The content of all wells was mixed by pipetting up and down three times. • i. Plates were incubated for 24±2 h (37±1° C., 5% CO2). • j. Medium was collected from the 96-microtiter plate: 50 μl for NO secretion assay and the rest was stored in −20° C. for cytokine secretion assay.
(§2) Cytokine Secretion • a. Reishi, Cordyceps M, Agaricus blazei, and Cordyceps Cs-4 were incubated with […] at 0.08-2 mg/ml for 24 hours. • b. Medium from cells was collected for Multiplex analysis (CCL3/MIP1α, IL-6, IL-1β, TNFα, IL-10 and IL-6) in duplicates. • c.
(§3) Cytokine Secretion • a. CBD (15 μM) and THC (20 μM) were incubated with […]. • b. Medium from cells was collected for Multiplex analysis (CCL3/MIP1α, IL-6, IL-1β, TNFα, IL-10 and IL-6) in duplicates. • c. […] IL-6 secretion: • i. […] TNFα secretion: • i.
(§4) Cytokine Secretion • a. […]

Series [2] concerns TNFα secretion from RAW cells. Briefly: TNFα secretion, Multiplex analysis of medium of LPS-stimulated RAW cells. The following applies: CBD (15 μM), THC (20 μM). Format: cell-based, Murine. The method, then:
as §1, §2, §3, §4

The next series relates to PANC-1 cells. Briefly: Viability assay (XTT) of PANC-1 cells. Format: cell-based, Human. The following applies: 72 hours; for % viability at the potent concentrations: CBD 40-100 μM, THC 100-375 μM, no dose response. The procedure: (§5) • a. PANC-1 cells (Human Pancreatic Cancer cells) (American Type Culture Collection, Rockville, MD, USA). • b. EGL-1 cells (Human extrahepatic cholangio carcinoma) Cell Growth:
Growth medium for PANC-1/EGL-1 cells: Dulbecco's Modified Eagle Medium (DMEM) high glucose supplemented with 10% Fetal Bovine Serum (FBS), 2 mM L-Glutamine, and 1% Penicillin-Streptomycin solution (PS).
Assay medium for PANC-1: Assay medium contained only 1% FBS.
(§6) • a. Cells were harvest at 80% confluence, counted and re-suspend to final concentration of 75×10^3/ml (PANC-1) or 50×103 (EGL-1) in growth medium. • b. Panc-1 cell suspension was seeded in 96-well microtiter plate at 7500 cells/100 μl/well and EGL-1 cell suspension was seeded in 96-well microtiter plate at 5000 cells/l100p/well. • c. Cells were incubated (37±10 C, 5% CO2) for 18-24 hrs. • d. Growth medium was removed; 80 μL assay medium and 20 μL Vehicle, Test Item, and Controls were added. […] The content of all wells was mixed by pipetting up and down three times. • f. Plates were incubated for 72±2 h (37±1° C., 5% CO2). • g. The medium on all plates was replaced with 100 μl culture medium. XTT Assay • a. XTT reaction solution was prepared. • b. 50 μl of the XTT reaction solution was added into each well. • c. Plates were incubated in a humidified atmosphere (e.g. 37° C., 5% CO2). • d. The plates were shaken gently to evenly distribute the dye in the wells. • e. The absorbance of the samples was measure against a background control as a blank with a spectrophotometer (ELISA reader) at a wavelength of 450 nm. • f. In order to measure reference absorbance (to measure non-specific readings), a wavelength of 620 nm was used to subtract from the 450 nm measurement. • g. The idle absorbance of the cells was 0.5-1.5 in all wells.
In general terms: Tetrazolium assays rely on reduction of a dye to a coloured formazan, in cell work by metabolically active cells.

The next series has as its system EGL-1 cells. Briefly: Viability assay (XTT) of EGL-1 cells. The series is classed as cell-based, Human. The following applies: 72 hours; for % viability at the potent concentrations: CBD 40-100 μM, THC 100-375 μM. The method, then:
as §5
Growth medium for EGL-1 cells: RPMI-1640 medium supplemented with 10% Fetal Bovine Serum (FBS), 2 mM L-Glutamine, and 1% Penicillin-Streptomycin solution (PS).
Assay medium for EGL-1: Assay medium contained only 1% FBS in DMEM low glucose (1 g/L)
as §6

Series [3] deals with NO secretion from RAW cells. Briefly: Nitric Oxide (NO) test (Griess test) on supernatants of LPS-stimulated RAW cells. The series is classed as cell-based, Murine. The following applies: for concentration effective in inhibiting NO secretion without affecting cells' viability / Cannabinoid NO: RAW cells 24 h; for % inhibition of NO secretion: vs vehicle. The procedure: • a. ⅔ of total final volume of warm water for injection (42° C.) was added to the dry mushroom powder. • b. The suspension was vortexed and centrifuged (4100 rpm, RT, 5 min). • c. The supernatant containing the water-soluble fraction was separated into a clean tube. • d. 5% of total final volume of EtOH was added to the pellet and vortexed to extract ethanol-soluble fractions. Water was added q.s. ad. final volume. • e. The suspension was vortexed and centrifuged. The resulting supernatant was combined and centrifuged again to remove debris, yielding a final concentration of 50 mg/ml. • f. The resulting solution was passed through a cell strainer (40-70 micron). • g. Two additional stocks were prepared in vehicle (5% EtOH in WFI): 10 mg/ml and 2 mg/ml. • h. All Test items/Vehicle were added to the cells at 4 μL into 96 μL medium, yielding final working concentrations of: 2 mg/ml, 0.4 mg/ml, and 0.08 (in 0.2% EtOH, 4% WFI). […] Cell Medium Formulations:
as §1
Cell Proliferation and Viability (XTT Assay) • a. XTT reaction solution was prepared. • b. 50 μl of the XTT reaction solution was added into each well. • c. Plates were incubated in a humidified atmosphere (e.g. 37° C., 5% CO2). • d. The plates were shaken gently to evenly distribute the dye in the wells. • e. The absorbance of the samples was measure against a background control as a blank with a spectrophotometer (ELISA reader) at a wavelength of 450 nm. • f. In order to measure reference absorbance (to measure non-specific readings), a wavelength of 620 nm was used to subtract from the 450 nm measurement. • g. […] Nitric Oxide (NO) Test (Griess Test) • a. The Sulfanilamide Solution and NED Solution were allowed to equilibrate to room temperature (15-30 minutes). • b. 1 ml of a 100 μM nitrite solution was prepared by diluting the provided 0.1M Nitrite Standard 1:1,000 in culture medium. • c. 2 columns (16 wells) were designate in the non-binding 96-well plate for the Nitrite Standard reference curve. 50 μl of assay medium were dispensed into the wells in rows B-H (FIG. 1). • d. 100 μl of the 100 μM nitrite solution was added to the remaining 2 wells in row A. serial twofold dilutions (50 μl/well) were performed immediately in duplicate down the plate to generate the Nitrite Standard reference curve (100, 50, 25, 12.5, 6.25, 3.13 and 1.56 μM), discarding 50 μl from the 1.56 μM set of wells • e. 50 μl of the Sulfanilamide Solution were dispensed to all experimental samples and wells containing the dilution series for the Nitrite Standard reference curve. • f. The plate was incubated 5-10 minutes at room temperature, protected from light. • g. 50 μl of the NED Solution was dispensed to all wells. • h. The plate was incubated 5-10 minutes at room temperature, protected from light. • i. Absorbance was measured within 30 minutes in a plate reader with a filter between 520 nm and 550 nm. • j.
(Griess reagent forms a coloured azo dye with nitrite.)

For series [4], the system named is U373-MG (glioblastoma) cells. Particulars: D9-THC at 100-300 nM; cited from earlier work.
Series [5] has as its system NCl-H292 (lung cancer) cells. Particulars: D9-THC at 100-300 nM; cited from earlier work.
In the next series the test system is cancer cells. Particulars: D9-THC (4-10 µM); cited from earlier work.
The mark [6] stands for this setting: Mus musculus, read-out: % inhibition of NO secretion.

As a reminder, the inhibition is the percentage by which the read-out fell short of the control. Consider `C=C(C)[C@@H]1CCC(C)=C[C@H]1c1c(O)cc(CCCCC)cc1O` [CBD, cannabidiol], for which the “effect on IL-6 secretion (in words)” value in series [1] is given as “did not affect IL-6 secretion”. Also, the “effect on TNFα secretion (in words)” value in series [2] is “did not affect TNFα secretion”. In the series on PANC-1 cells, the “concentration at which potent (viability)” value (shortened to “concentration … (viability)”) fell in the range of 40 to 100 µM and the “% viability at the potent concentrations” value stood at 35%. Moreover, in the series on EGL-1 cells, the “concentration … (viability)” value lay within 40 to 100 µM and the “% viability at the potent concentrations” value was 15-30%. Further, in series [3] (CBD 15 μM alone), the NO was 6.67 µM. In addition, the inhibition at 15 µM in series [3] (setting [6]) amounted to 40.2%. The “concentration effective in inhibiting NO secretion without affecting cells' viability” value in series [3] fell in the range of 15 to 20 µM. Further, in series [3] (cannabinoid 15 μM), the “Cannabinoid NO” value came to 11.8 µM and the “% inhibition of NO secretion” value came out at 38.6%. In series [3] (cannabinoid 20 μM), the “Cannabinoid NO” value was determined as 5.07 µM and the “% inhibition of NO secretion” value came to 73.6%.
Consider `CCCCCc1cc(O)c2c(c1)OC(C)(C)[C@@H]1CCC(C)=C[C@@H]21` [THC, Δ^9-tetrahydrocannabinol], for which the “increase in the proliferation rate” value was 2 fold in series [4] and 1.2 fold in series [5]. Moreover, the “number of apoptotic cells” value with cancer cells is 30-80%. In addition, the “effect on TNFα secretion (in words)” value in series [2] was “did not affect TNFα secretion”. In addition, the “concentration … (viability)” value in the series on PANC-1 cells and with EGL-1 cells was 100 to 375 µM in each case. Further, the results for the “% viability at the potent concentrations” value in the series on PANC-1 cells and in the series with EGL-1 cells were 35% and 15%, respectively. The inhibition at 20 µM in series [3] (setting [6]) was determined as 66.7%. For the same compound, the “concentration effective in inhibiting NO secretion without affecting cells' viability” value in series [3] is 20 µM. The NO in series [3] (THC 20 μM alone) is 3.72 µM. In series [3] (cannabinoid 20 μM), the “Cannabinoid NO” value turned out to be 8.77 µM. In addition, the “% inhibition of NO secretion” value in series [3] (cannabinoid 20 μM) is 54.4%.
